Laboratory results: DBAASP
In brackets after ≈: the same amount, converted by molar mass. One block for each molecule: values may come before it.

Tests used:
Test in all cases: ≥ marks a high value that may be exact or a test limit, other limits are often not marked, values filed in µg/mL are converted to µM
[1] = test system: Staphylococcus aureus PCM 1944
[2] = test system: Escherichia coli PCM 2057
Listeria monocytogenes = test system: Listeria monocytogenes
Salmonella typhimurium = test system: Salmonella typhimurium
Klebsiella pneumoniae = test system: Klebsiella pneumoniae
[3] = test system: Pseudomonas aeruginosa ATCC 82118
Pediococcus acidilactici = test system: Pediococcus acidilactici
Serratia marcescens Db11 = test system: Serratia marcescens Db11
[4] = test system: Staphylococcus saprophyticus
[5] = test system: Enterobacter cloacae beta-12
Bacillus megaterium = test system: Bacillus megaterium
Micrococcus luteus A270 = test system: Micrococcus luteus A270
Escherichia coli D22 = test system: Escherichia coli D22
Bacillus subtilis QB935 = test system: Bacillus subtilis QB935
Aerococcus viridans = test system: Aerococcus viridans
Alcaligenes faecalis = test system: Alcaligenes faecalis
Staphylococcus aureus = test system: Staphylococcus aureus
Bacillus thuringiensis = test system: Bacillus thuringiensis
[6] = test system: Corynebacterium diphtheriae ATCC 8024
[7] = test system: Escherichia coli ATCC 2592
[8] = test system: Candida albicans ATCC 36232
[9] = test system: Pseudomonas aeruginosa ATCC 9027
[10] = test system: Staphylococcus epidermidis ATCC 12228
[11] = test system: Bacillus subtilis ATCC 6633
[12] = test system: Staphylococcus aureus ATCC 6538
[13] = test system: Shigella flexneri ATCC 203
[14] = test system: Micrococcus luteus ATCC 9341

MIC [1]: ≥ 505 µM | MIC [2]: ≥ 505 µM
SMILES: CC[C@H](C)[C@@H]1NC(=O)[C@H](CO)NC(=O)[C@H](CCCCN)NC(=O)[C@@H](NC(=O)[C@H](CCCN=C(N)N)NC(=O)[C@H](Cc2ccccc2)NC(=O)[C@H](Cc2cnc[nH]2)NC(=O)[C@@H](NC(=O)[C@H](CCCCN)NC(=O)[C@H](Cc2ccccc2)NC(=O)[C@@H]2CCCN2C(=O)[C@@H](NC(=O)[C@H](CC(N)=O)NC(=O)[C@H](C)NC(=O)[C@H](C)N)[C@@H](C)CC)C(C)C)CSSC[C@@H](C(=O)O)NC(=O)[C@H](Cc2ccccc2)NC1=O [AANIPFKVHFRCKSIFC]

MIC (Listeria monocytogenes): 5 µM (≈ 23.6 µg/mL) | MIC (Salmonella typhimurium): 5 µM (≈ 23.6 µg/mL) | MIC (Klebsiella pneumoniae): > 5 µM | MIC [3]: 5 µM (≈ 23.6 µg/mL) | MIC (Pediococcus acidilactici): 3.54 µM (≈ 16.7 µg/mL) | MIC (Serratia marcescens Db11): 5 µM (≈ 23.6 µg/mL) | MIC [4]: 1.77 µM (≈ 8.36 µg/mL) | MIC [5]: 5 µM (≈ 23.6 µg/mL) | MIC (Bacillus megaterium): 0.212 µM (≈ 1 µg/mL) | MIC (Micrococcus luteus A270): 0.212 µM (≈ 1 µg/mL) | MIC (Escherichia coli D22): 3.54 µM (≈ 16.7 µg/mL) | MIC (Bacillus subtilis QB935): 3.54 µM (≈ 16.7 µg/mL) | MIC (Aerococcus viridans): 0.424 µM (≈ 2.01 µg/mL) | MIC (Alcaligenes faecalis): 5 µM (≈ 23.6 µg/mL) | MIC (Staphylococcus aureus): 0.88 µM (≈ 4.16 µg/mL) | MIC (Bacillus thuringiensis): 5 µM (≈ 23.6 µg/mL)
SMILES: CC[C@H](C)[C@@H]1NC(=O)[C@H](CC(=O)O)NC(=O)[C@@H](NC(=O)[C@@H](NC(=O)[C@H](C)N)[C@@H](C)O)CSSC[C@@H]2NC(=O)[C@H](CCC(N)=O)NC(=O)CNC(=O)CNC(=O)[C@H](CCCCN)NC(=O)[C@H](Cc3ccc(O)cc3)NC(=O)CNC(=O)[C@H](CCCCN)NC(=O)[C@H]([C@@H](C)CC)NC(=O)[C@H](C(C)C)NC(=O)[C@@H]3CSSC[C@@H](C(=O)N[C@@H](CCCN=C(N)N)C(=O)N[C@@H](CCCN=C(N)N)C(=O)O)NC(=O)[C@H](Cc4cnc[nH]4)NC(=O)[C@H](CSSC[C@H](NC(=O)CNC(=O)[C@H](C)NC(=O)[C@H](Cc4cnc[nH]4)NC(=O)[C@H](CC(N)=O)NC(=O)[C@@H]4CCCN4C(=O)[C@H]([C@@H](C)O)NC(=O)[C@H](C(C)C)NC(=O)[C@H](Cc4c[nH]c5ccccc45)NC(=O)[C@H](CCC(N)=O)NC(=O)[C@H](CO)NC(=O)[C@H](CCC(N)=O)NC(=O)[C@H](Cc4ccccc4)NC(=O)[C@H](CO)NC(=O)[C@H](CC(C)C)NC1=O)C(=O)N[C@@H](C)C(=O)N[C@@H](CC(C)C)C(=O)N[C@@H](Cc1cnc[nH]1)C(=O)N3)NC(=O)[C@H](C(C)C)NC(=O)[C@H]([C@@H](C)O)NC(=O)[C@H]([C@@H](C)CC)NC(=O)[C@H](CCCCN)NC2=O [ATCDILSFQSQWVTPNHAGCALHCVIKGYKGGQCKITVCHCRR]

MIC [6]: ≥ 96.7 µM | MIC [7]: ≥ 96.7 µM | MIC [8]: ≥ 96.7 µM | MIC [9]: > 96.7 µM | MIC [10]: > 96.7 µM | MIC [11]: ≥ 96.7 µM | MIC [12]: > 96.7 µM | MIC (Staphylococcus aureus): > 96.7 µM | MIC [13]: ≥ 96.7 µM | MIC [14]: ≥ 96.7 µM
SMILES: CC(C)[C@H](NC(=O)[C@H](CS)NC(=O)[C@@H](NC(=O)[C@H](CCCN=C(N)N)NC(=O)[C@H](CCCCN)NC(=O)CNC(=O)[C@@H](N)CC(N)=O)C(C)C)C(=O)N[C@@H](CS)C(=O)N[C@@H](CCCN=C(N)N)C(N)=O [NGKRVCVCR]
